Assay results taken from ChEMBL document CHEMBL1201862, “PubChem BioAssay data set” (2004).
Values joined by “and” are separate entries in the source; they are usually repeats but may differ in a detail not shown here. Equal entries are not always repeated.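 Dose response: 5 concentrations. Exposure: 48 h. Format: 96-well plates. Endpoint: linear interpolation; highest concentration if not reached. At the GI50, growth is halved.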 Active and inactive are the calls of the source. No stated cut-off is given here; in the data, active = GI50 up to about 1.1 µM and inactive = higher.

Assays:
Experiment in all cases: NCI anticancer screen, dose series, 48 h
ACHN = test system: ACHN
DU-145 = test system: DU-145
HCT-116 = test system: HCT-116
Hs-578T = test system: Hs-578T
K562 = test system: K562
LOX IMVI = test system: LOX IMVI
M14 = test system: M14
MOLT-4 = test system: MOLT-4
Malme-3M = test system: Malme-3M
NCI-H23 = test system: NCI-H23
NCI/ADR-RES = test system: NCI/ADR-RES
OVCAR-3 = test system: OVCAR-3
PC-3 = test system: PC-3
SF-295 = test system: SF-295
SK-MEL-28 = test system: SK-MEL-28
SNB-19 = test system: SNB-19
SNB-75 = test system: SNB-75
UACC-62 = test system: UACC-62
UO-31 = test system: UO-31
SR = test system: SR

Structure (SMILES)	GI50 (ACHN)	GI50 (DU-145)	GI50 (HCT-116)	GI50 (Hs-578T)	GI50 (K562)	GI50 (LOX IMVI)	GI50 (M14)	GI50 (MOLT-4)	GI50 (Malme-3M)	GI50 (NCI-H23)	GI50 (NCI/ADR-RES)	GI50 (OVCAR-3)	GI50 (PC-3)	GI50 (SF-295)	GI50 (SK-MEL-28)	GI50 (SNB-19)	GI50 (SNB-75)	GI50 (UACC-62)	GI50 (UO-31)	GI50 (SR)
O=C(O)CCC(=O)Nc1ccc2ccccc2c1	> 100 µM (inactive)	> 100 µM (inactive)	> 100 µM (inactive)	> 100 µM (inactive)	> 100 µM (inactive)	> 100 µM (inactive)	> 100 µM (inactive)	> 100 µM (inactive)	> 100 µM (inactive)	> 100 µM (inactive)	> 100 µM (inactive)	> 100 µM (inactive)	> 100 µM (inactive)	> 100 µM (inactive)	> 100 µM (inactive)	> 100 µM (inactive)	> 100 µM (inactive)	> 100 µM (inactive)	> 100 µM (inactive)	–
COc1cc(OC)c(/C=C/c2cnc3ccccc3n2)c(OC)c1	> 10 µM (inactive)	> 10 µM (inactive)	> 10 µM (inactive)	> 10 µM (inactive)	> 10 µM (inactive)	> 10 µM (inactive)	> 10 µM (inactive)	–	> 10 µM (inactive)	> 10 µM (inactive)	> 10 µM (inactive)	> 10 µM (inactive)	> 10 µM (inactive)	> 10 µM (inactive)	> 10 µM (inactive)	> 10 µM (inactive)	> 10 µM (inactive)	> 10 µM (inactive)	0.0561 µM (active)	–
CC1(C)C(O)C[C@]23CCC[C@](C)(C[C@@H](O)C12)C3 (stereo not given in full)	> 100 µM (inactive)	–	–	> 100 µM (inactive)	> 100 µM (inactive)	> 100 µM (inactive)	> 100 µM (inactive)	> 100 µM (inactive)	> 100 µM (inactive)	> 100 µM (inactive)	> 100 µM (inactive)	> 100 µM (inactive)	> 100 µM (inactive)	> 100 µM (inactive)	> 100 µM (inactive)	> 100 µM (inactive)	> 100 µM (inactive)	> 100 µM (inactive)	> 100 µM (inactive)	> 100 µM (inactive)
COc1ccccc1/C=C(/C)[N+](=O)[O-]	2.17 µM (inactive) and 2.44 µM (inactive)	1.02 µM (active) and 1.04 µM (active)	–	4.55 µM (inactive) and 4.24 µM (inactive)	–	–	1.37 µM (inactive) and 1.21 µM (inactive)	269 nM (active) and 255 nM (active)	2.51 µM (inactive) and 1.85 µM (inactive)	2.15 µM (inactive) and 2.2 µM (inactive)	3.44 µM (inactive) and 2.65 µM (inactive)	1.32 µM (inactive) and 1.09 µM (active)	2.79 µM (inactive) and 2.53 µM (inactive)	–	2.46 µM (inactive) and 2.19 µM (inactive)	4.26 µM (inactive) and 2.33 µM (inactive)	–	1.89 µM (inactive) and 1.58 µM (inactive)	1.69 µM (inactive) and 1.72 µM (inactive)	–
N#Cc1nnn(C2CCCCC2)c1O	> 100 µM (inactive)	> 100 µM (inactive)	> 100 µM (inactive)	> 100 µM (inactive)	–	> 100 µM (inactive)	> 100 µM (inactive)	> 100 µM (inactive)	> 100 µM (inactive)	> 100 µM (inactive)	> 100 µM (inactive)	> 100 µM (inactive)	> 100 µM (inactive)	> 100 µM (inactive)	> 100 µM (inactive)	> 100 µM (inactive)	> 100 µM (inactive)	> 100 µM (inactive)	> 100 µM (inactive)	–
Cc1c2c(OCC3CCCCO3)nn(C)c(=O)c2c(C)n1-c1ccccc1 (stereo not given)	16.5 µM (inactive)	17.7 µM (inactive)	17 µM (inactive)	21.2 µM (inactive)	38.8 µM (inactive)	17.7 µM (inactive)	19.1 µM (inactive)	29 µM (inactive)	18.7 µM (inactive)	20 µM (inactive)	21.3 µM (inactive)	16.7 µM (inactive)	19.7 µM (inactive)	16.5 µM (inactive)	–	21.7 µM (inactive)	13 µM (inactive)	16.4 µM (inactive)	16.6 µM (inactive)	–
Cc1nc2ccccc2c(=O)n1NC(=O)c1ccc([N+](=O)[O-])cc1	> 100 µM (inactive)	> 100 µM (inactive)	> 100 µM (inactive)	> 100 µM (inactive)	> 100 µM (inactive)	> 100 µM (inactive)	> 100 µM (inactive)	> 100 µM (inactive)	> 100 µM (inactive)	> 100 µM (inactive)	–	> 100 µM (inactive)	> 100 µM (inactive)	> 100 µM (inactive)	> 100 µM (inactive)	> 100 µM (inactive)	> 100 µM (inactive)	> 100 µM (inactive)	> 100 µM (inactive)	> 100 µM (inactive)
COC(=O)C1c2cc3c(cc2C(OC2OC(C)C(OC)C(C)(OC)C2OC)CC1(C)O)C(=O)c1c(O)cc2c(c1C3=O)OC1OC2(C)C(O)C([N+](C)(C)[O-])C1O (stereo not given)	0.309 µM (active)	0.275 µM (active)	0.0197 µM (active)	0.165 µM (active)	0.0324 µM (active)	0.0354 µM (active)	0.482 µM (active)	0.416 µM (active)	0.0581 µM (active)	0.105 µM (active)	–	0.658 µM (active)	0.355 µM (active)	0.269 µM (active)	0.195 µM (active)	0.126 µM (active)	0.179 µM (active)	0.0509 µM (active)	1.19 µM (inactive)	0.305 µM (active)
CS(=O)(=O)c1nc(-c2cc3c(c(S(C)(=O)=O)n2)CCC3)cc2c1CCCC2	37 µM (inactive)	> 100 µM (inactive)	> 100 µM (inactive)	2.55 µM (inactive)	> 100 µM (inactive)	18.7 µM (inactive)	> 100 µM (inactive)	> 100 µM (inactive)	–	58.3 µM (inactive)	48.6 µM (inactive)	> 100 µM (inactive)	> 100 µM (inactive)	29.7 µM (inactive)	> 100 µM (inactive)	32.4 µM (inactive)	8.63 µM (inactive)	14.4 µM (inactive)	7.71 µM (inactive)	–
COC(=O)[C@H](Cc1c[nH]c2ccccc12)NP(=O)(O)OC[C@H]1O[C@@H](n2cc(C)c(=O)[nH]c2=O)C[C@@H]1N=[N+]=[N-]	–	> 100 µM (inactive)	> 100 µM (inactive)	> 100 µM (inactive)	> 100 µM (inactive)	> 100 µM (inactive)	> 100 µM (inactive)	> 100 µM (inactive)	> 100 µM (inactive)	> 100 µM (inactive)	> 100 µM (inactive)	> 100 µM (inactive)	> 100 µM (inactive)	> 100 µM (inactive)	–	> 100 µM (inactive)	> 100 µM (inactive)	> 100 µM (inactive)	> 100 µM (inactive)	–
CC(=O)O[C@H]1C(=O)[C@@]2(C)C(C(OC(=O)c3ccccc3)[C@]3(O)CC(OC(=O)C(O)C(NC(=O)c4cccc(Cl)c4)c4ccccc4)C(C)=C1C3(C)C)[C@]1(OC(C)=O)CO[C@@H]1C[C@@H]2O (stereo not given in full)	1.82 µM (inactive)	0.546 µM (active)	0.16 µM (active)	–	0.562 µM (active)	0.841 µM (active)	0.851 µM (active)	1.01 µM (active)	2.75 µM (inactive)	1.39 µM (inactive)	5.28 µM (inactive)	0.449 µM (active)	1.53 µM (inactive)	1.15 µM (inactive)	–	2.79 µM (inactive)	1.1 µM (active)	–	–	0.218 µM (active)
COc1ccc(NC(=S)c2ccoc2C)cc1CC(=O)OC(C)C	30.8 µM (inactive)	48.3 µM (inactive)	55.8 µM (inactive)	45.2 µM (inactive)	34.8 µM (inactive)	18.8 µM (inactive)	24.9 µM (inactive)	18.8 µM (inactive)	–	46.2 µM (inactive)	17.5 µM (inactive)	26.5 µM (inactive)	21.9 µM (inactive)	38.1 µM (inactive)	34.4 µM (inactive)	61.5 µM (inactive)	15.7 µM (inactive)	26 µM (inactive)	30.6 µM (inactive)	–
O=P1(c2ccccc2)c2ccccc2CCc2ccccc21	–	72.8 µM (inactive)	53 µM (inactive)	> 100 µM (inactive)	–	> 100 µM (inactive)	70 µM (inactive)	33.6 µM (inactive)	–	> 100 µM (inactive)	–	40.8 µM (inactive)	50.5 µM (inactive)	45.5 µM (inactive)	> 100 µM (inactive)	> 100 µM (inactive)	43.8 µM (inactive)	78.7 µM (inactive)	53.3 µM (inactive)	–
CS(=O)(=O)O[C@H]1[C@H](O)c2ccccc2[C@@H]1N=[N+]=[N-]	> 100 µM (inactive)	> 100 µM (inactive)	> 100 µM (inactive)	–	> 100 µM (inactive)	> 100 µM (inactive)	> 100 µM (inactive)	> 100 µM (inactive)	> 100 µM (inactive)	> 100 µM (inactive)	> 100 µM (inactive)	> 100 µM (inactive)	> 100 µM (inactive)	> 100 µM (inactive)	> 100 µM (inactive)	> 100 µM (inactive)	21.4 µM (inactive)	> 100 µM (inactive)	> 100 µM (inactive)	> 100 µM (inactive)
CCOc1cccc(/C=N/N=C2\C(=O)Nc3c(Cl)cc(Cl)cc32)c1O	> 100 µM (inactive)	–	74.3 µM (inactive)	> 100 µM (inactive)	41.1 µM (inactive)	32.5 µM (inactive)	73.3 µM (inactive)	28.4 µM (inactive)	> 100 µM (inactive)	50.1 µM (inactive)	33.3 µM (inactive)	36.9 µM (inactive)	44.2 µM (inactive)	62.5 µM (inactive)	71.8 µM (inactive)	> 100 µM (inactive)	40.9 µM (inactive)	58.2 µM (inactive)	34 µM (inactive)	29.4 µM (inactive)
